Here are results for 2 compounds from paper PMC5607265, “Design, synthesis and structure-activity relationship of 3,6-diaryl-7H-[1,2,4]triazolo[3,4-b][1,3,4]thiadiazines as novel tubulin inhibitors” (Scientific Reports, 2017).

“Also recorded” adds a separate entry of the source.

Assay [1] deals with gastric adenocarcinoma SGC-7901 cells. Nature of the assay: MTT antiproliferative assay, SGC-7901. The settings on record: Homo sapiens, SGC-7901; MTT assay, 24 h exposure, triplicate; read-out: IC50 SGC-7901. The format is cell-based, human. How it is done:
(§1) The SGC-7901, A549 and HT-1080 cell lines were purchased from the American Type Culture Collection (ATCC, Manassas, VA, USA). […] Briefly, approximately 3 × 10^4 cells were seeded in a 96-well plate. After 24 h of incubation at 37 °C, cells were exposed to compounds of differing concentrations for 24 h. After treatment, cells were washed with 1X PBS followed by addition of 100 µL of 0.05% MTT reagent to each well, followed by incubation for 4 h at 37 °C. After incubation, the supernatant from each well was carefully removed and the formazan crystals were dissolved in 100 µL of DMSO. The colour density was measured spectrophotometrically at 490 nm using a microplate reader (SpectraMax Plus384, Molecular Devices Corp., USA). The data were calculated and plotted as percent viability compared to control.
as §1
A general note: Formazan colour is commonly taken as a measure of viable cells.

Assay [2] deals with colchicine-binding site on tubulin (Sus scrofa, UniProt P02554). The assay is described as follows: Competitive tubulin-binding assay (colchicine). The settings on record: 5.0 µM colchicine; compound 1.6, 5.0, 15.0 µM. How it is done:
To confirm whether these designed compounds could bind to the colchicine site on tubulin, compound 6i was investigated for its ability of competitive inhibition of colchicine binding[39],[40]. CA-4 and paclitaxel were used as a positive and a negative control, respectively.
Figure 6 Competitive binding of 6i to colchicine-binding site on tubulin.
For the colchicine competitive binding assay, tubulin was co-incubated with indicated concentrations of MPSP-001 and paclitaxel at 37 °C for 1 h. Then colchicine was added to a final concentration of 5 μmol L^−1. Fluorescence was determined using a Hitachi F-2500 spectrofluorometer (Tokyo, Japan) at the excitation wavelength of 365 nm and the emission wavelength of 435 nm. Blank values (buffer alone) as the background were subtracted from all samples. […] Paclitaxel, not binding in the colchicine site of tubulin, was added as a negative control. The experiments were repeated at least three times.
(5). Competitive tubulin-binding assay. For the colchicine competitive binding assay, tubulin was co-incubated with indicated concentrations of MPSP-001 and paclitaxel at 37 °C for 1 h. Then colchicine was added to a final concentration of 5 μmol L^−1. Fluorescence was determined using a Hitachi F-2500 spectrofluorometer (Tokyo, Japan) at the excitation wavelength of 365 nm and the emission wavelength of 435 nm. […]

For assay [3], the system named is SGC-7901, A549 and HT-1080 cell lines. Nature of the assay: MTT antiproliferative assay, span over the three cell lines. It is filed as cell-based, human. The settings on record: MTT assay; for IC50: Homo sapiens, range over SGC-7901, A549 and HT-1080, read-out: IC50 range against the three human cancer cell lines. As for the experimental part:
as §1, §1

In assay [4] the test system is fibrosarcoma HT-1080 cells. Nature of the assay: MTT antiproliferative assay, HT-1080. The format is cell-based, human. The settings on record: Homo sapiens, HT-1080; MTT assay, 24 h exposure, triplicate; read-out: IC50 HT-1080. As for the experimental part: as §1, §1
In the next assay the test system is SGC-7901 cells. The assay is described as follows: Cell cycle analysis by flow cytometry. It is filed as cell-based, human. The conditions noted are these: for cell cycle arrest: SGC-7901, 12 h, 6i 0.011, 0.022, 0.044 µM, CA-4 0.022 µM. As for the experimental part: Thus, the effect of compound 6i on the cell cycle progression of the SGC-7901 cells was investigated by flow cytometry analysis (Fig. 5). […] Compound 6i could arrest cell cycle distribution at the G2/M phase in a dose-dependent manner.
Figure 5 Compound 6i affects the cell cycle progression in SGC-7901 cells.
Cell cycle analysis studies were performed by following a previously reported method. […] The cells were collected by centrifugation, washed with PBS and fixed in ice-cold 70% ethanol. The fixed cells were harvested by centrifugation and resuspended in 500 µl of PBS containing 1 mg/mL RNase. After 30 min of incubation at 37 °C, the cells were stained with […] propidium iodide (PI) at 4 °C in the dark for 30 min. The samples were then analyzed by FACScan flow cytometry (Becton-Dickinson, Franklin Lakes, NJ, USA). The experiments were repeated at least three times.
The cells were collected by centrifugation, washed with PBS and fixed in ice-cold 70% ethanol. The fixed cells were harvested by centrifugation and resuspended in 500 µl of PBS containing 1 mg/mL RNase. After 30 min of incubation at 37°C, the cells were stained with […] propidium iodide (PI) at 4°C in the dark for 30 min. The samples were then analyzed by FACScan flow cytometry (Becton-Dickinson, Franklin Lakes, NJ, USA). The experiments were repeated at least three times.
Figure S1 Compound 6i induced G2/M phase arrest in a time-dependent manner. SGC-7901 cells were treated with 6i (0.022 µM) for time 12, 24, 36, 48 and 60 h, then stained with PI and subjected to flow cytometric analysis.
A general note: In flow cytometry, cells or beads pass a laser one at a time.

By IC50 is commonly meant the concentration at which inhibition is half-maximal. On to `COc1cccc(-c2nnc3n2N=C(c2ccc(OC)c(N)c2)CS3)c1` [Compound 6i, 3-(3-Methoxyphenyl)-6-(3-amino-4-methoxyphenyl)-7H-[1,2,4]triazolo[3,4-b][1,3,4]thiadiazine], for which the IC50 was 11 nM in assay [1], 11 to 15 nM in assay [3] and 14 nM in assay [4]. Besides, in assay [2], the “competition with colchicine: fluorescence of colchicine-tubulin complex” value was “fluorescence of a colchicine-tubulin complex was reduced”. Moreover, in assay [3] (SGC-7901, A549 and HT-1080), the “antiproliferative activity in words” value is reported as “nanomolar IC50 values against all tested cells; also recorded: IC50 values at the nanomolar level”. The “apoptosis after G2/M arrest (sub-G1)” value with SGC-7901 cells (SGC-7901, 6i 0.022 µM, 12-60 h) was “sub-G1 phase increase from 24 to 60 h; also recorded: cause subsequent apoptosis after G2/M arrest”. Also, the cell cycle arrest entry with SGC-7901 cells is “induced cell arrest in G2/M phase from 0 to 12 h; also recorded: potent cell cycle arrests in G2/M phase”.

Consider `COc1ccc(/C=C\c2cc(OC)c(OC)c(OC)c2)cc1O` [CA-4, Combretastatin A-4, reference compound], for which the results for the IC50 in assay [1], in assay [3] and in assay [4] were 11 nM, 9 to 13 nM and 13 nM, respectively. In addition, in assay [2], the “competition with colchicine: fluorescence of colchicine-tubulin complex” value is “fluorescence of a colchicine-tubulin complex was reduced”. Also, the cell cycle arrest entry in the assay on SGC-7901 cells is recorded as “potent cell cycle arrests in G2/M phase”.
